Experimental data published in US11166934B2 (Azcuris Co., Ltd., priority 2017, dated 2021).
Read-outs that look alike come from different tables or passages of the source.

Legend:
binding of TSLP to TSLPR = binding of TSLP to TSLPR (Homo sapiens, UniProt Q969D9); assay: ELISA-based TSLP-TSLPR interaction assay (FLAG-TSLP, TSLPR-His, HRP); conditions: for inhibitory effects on the binding of TSLP to TSLP receptor (in words): treated alone
[1] = test system: TSLP-mediated phosphorylation of STAT5 in HMC-1 human mast cell line; assay: Cell-based efficacy evaluation using FACS: intracellular phosphorylation of STAT5 after TSLP treatment of HMC-1 cells; conditions: for Degrees of intracellular phosphorylation of STAT5 molecules (%): HMC-1 cells, TSLP 100 ng/mL, 30 min, control treated with TSLP alone = 100%
Method: The binding of TSLP to TSLP receptor activates various signaling pathways, mainly the JAK/STAT pathway. TSLP-mediated signaling is well known to specifically phosphorylate STAT5 among STAT molecules.
In this example, this fact was confirmed through the following experiment.
First, HMC-1, a human mast cell line, was cultured until an appropriate number of cells were maintained in a 96-well plate. […] Cells were fixed with Cytofix. Subsequently, cells were permeabilized with a permeabilization buffer and stained with anti-pSTAT5 antibody at 4° C. for 30 min. Cells were washed three times with the same buffer and analyzed by flow cytometry. […] The intracellular phosphorylation of STAT5 molecules in the control was 100%.

[2] = read-out: TSLP-TSLPR inhibitions (%)

binding of TSLP to TSLPR, sequence (Q969D9 29-159): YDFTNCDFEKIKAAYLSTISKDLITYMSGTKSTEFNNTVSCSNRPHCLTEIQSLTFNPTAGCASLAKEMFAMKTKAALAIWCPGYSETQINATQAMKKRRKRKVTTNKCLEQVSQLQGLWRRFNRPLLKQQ

| SMILES | inhibition at 150 µM (binding of TSLP to TSLPR; [2]) [%] | inhibition at 300 µM (binding of TSLP to TSLPR; [2]) [%] | inhibitory effects on the binding of TSLP to TSLP receptor (in words) (binding of TSLP to TSLPR) | other results |
| --- | --- | --- | --- | --- |
| O=c1cc(-c2ccccc2)oc2cc(O)c(O)c(O)c12 [Formula 1, baicalein] | – | – | – | inhibition at 100 µM (binding of TSLP to TSLPR; read-out: TSLP-TSLPR inhibitions (%), 0.1 mM, Table 5): 3.2 ± 1.3%; inhibition at 300 µM (binding of TSLP to TSLPR; read-out: TSLP-TSLPR inhibitions (%), 0.3 mM, Table 2): 45.8 ± 0.7%; inhibition at 300 µM (binding of TSLP to TSLPR; read-out: TSLP-TSLPR inhibitions (%), 0.3 mM, Table 6): 16.5 ± 1.6%; Degrees of intracellular phosphorylation of STAT5 molecules (%) ([1]; 3 μM): 65.7%; Degrees of intracellular phosphorylation of STAT5 molecules (%) ([1]; 10 μM): 61.6%; effect on phosphorylation of STAT5 molecules (in words) ([1]; summary of Table 1): inhibit the phosphorylation of STAT5 molecules |
| Oc1ccc(-c2[o+]c3cc(O)cc(O)c3cc2O)cc1 [Formula 2, pelargonidin chloride] | 6.3 ± 0.1 | 13.1 ± 5.8 | – | – |
| O=c1c(O)c(-c2ccc(O)cc2)oc2cc(O)cc(O)c12 [Formula 3, kaempferol] | 0.6 ± 3.7 | – | – | – |
| O=C1/C(=C2\Nc3ccccc3C2=O)Nc2ccccc21 [Formula 4, indigo dye] | 3.5 ± 2.7 | – | – | – |
| CN(C)CCn1c(=O)c2nc(-c3ccccc3)oc2c2ccccc21 [Formula 5, 5-(2-(dimethylamino)ethyl)-2-phenyloxazolo[4,5-c]quinolin-4(5H)-one] | 10.2 ± 17 | 21.6 ± 3.4 | insignificant inhibitory effects | inhibition at 100 µM (binding of TSLP to TSLPR; [2]): 6.5 ± 8.6% |
| CN(C)CCOc1nc2ccccc2c2oc(-c3ccccc3)nc12 [Formula 6, N,N-dimethyl-2-((2-phenyloxazolo[4,5-c]quinolin4-yl)oxy)ethanamine] | 5.4 ± 0.7 | 19.3 ± 3 | insignificant inhibitory effects | – |
